Measurements as given in patent publication US5811452A, “Taxoid reversal agents for drug-resistance in cancer chemotherapy and pharmaceutical compositions thereof” (The Research Foundation of State University of New York, priority 1997, dated 1998).
Like-named read-outs stand apart in the source and are kept apart here.

Experiments:
MCF7 (mammary carcinoma) = test: Cytotoxicity evaluation (cell growth inhibition, SRB, 72 h); format: cell-based; settings: read-out: IC50, growth of human tumor cell line MCF7 (breast)
Protocol: (§1) Taxoids, thus synthesized, were evaluated for their cytotoxicity against human tumor cell line, A2780 (ovarian carcinoma), A2780-DX5 (ovarian carcinoma resistant to doxorubicin), MCF7 (mammary carcinoma) or MCF7-R (mammary carcinoma cells resistant to doxorubicin), after 72 hours drug exposure according to the methods of Skehon, et al., "J. Nat. Cancer Inst. 82, 1107, 1990". […] Lower numbers indicate higher potency. The data represent the means values of at least three separate experiments. Lower numbers indicate stronger cytotoxicity.
(§2) Assessment of cytotoxicity, i.e., cell growth inhibition, was determined according to the methods of Skehan, et al. as discussed in J. Nat. Cancer Inst. 82, 1107, 1990. Briefly, cells were plated between 400 and 1200 cells/well in 96 well plates and incubated at 37° C. for 15-18 h prior to drug addition to allow attachment of cells. Compounds tested were solubilized in 100% DMSO and further diluted in RPMI-1640 containing 10 mM HEPES. Each cell line was treated with 10 concentrations of compounds (5 log range). After a 72 h incubation, […] of ice-cold 50% TCA was added to each well and incubated for 1 h at 4° C. Plates were then washed 5 times with tap water to remove TCA, low-molecular-weight metabolites and serum proteins. Sulforhodamine B (SRB) (0.4%, […]) was added to each well. Following a 5 minute incubation at room temperature, plates were rinsed 5 times with 0.1% acetic acid and air dried. Bound dye was solubilized with 10 mM Tris Base (pH 10.5) for 5 min on a gyratory shaker. Optical density was measured at 570 nm.

[1] = test system: MCF7-R (mammary carcinoma cells resistant to doxorubicin); test: as above; format: cell-based; settings: read-out: IC50, growth of human tumor cell line MCF7-R (breast)
Protocol: as §1, §2

[2] = test system: drug-resistant breast cancer cells MCF7-R; test: MDR reversal: cytostatic activity in combination with paclitaxel or doxorubicin; format: cell-based, human; settings: for % IC50 reduction (taxoid + Paclitaxel): taxoid 1 μM + paclitaxel
Protocol: ^a Treatment consists of concurrent exposure of MCF7R cells to
reversing agent (1 μM) for 72 h in vitro.

[3] = test system: A2780 (ovarian carcinoma); test: Cytotoxicity evaluation (cell growth inhibition, SRB, 72 h); format: cell-based; settings: read-out: IC50, growth of human tumor cell line A2780 (ovarian)
Protocol: as §1, §2

[4] = test system: A2780-DX5 (ovarian carcinoma resistant to doxorubicin); test: as above; format: cell-based; settings: read-out: IC50, growth of human tumor cell line A2780-DX5 (ovarian)
Protocol: as §1, §2

microtubules = settings: cited from earlier work
P-glycoprotein mdr 1a = settings: Taxol-resistant T1 cells; cited from earlier work
P-glycoprotein mdr 1b = settings: cited from earlier work
J7 (parent) cells = settings: cited from earlier work
[5] = 72 h exposure, doxorubicin-resistant
[6] = read-out: IC50 (taxoid + Paclitaxel), paclitaxel in presence of taxoid reversing agent (1 μM), 72 h
[7] = 72 h exposure, mean of at least three experiments
[8] = Homo sapiens, MCF7R, without reversing agent, 72 h, read-out: IC50 of anticancer drug alone
[9] = Homo sapiens, A2780, 72 h exposure, mean of at least three experiments
[10] = Homo sapiens, 72 h exposure, doxorubicin-resistant
[11] = Homo sapiens, MCF7, 72 h exposure
[12] = Homo sapiens, MCF7R, 72 h exposure, doxorubicin-resistant

| % IC50 reduction (taxoid + Paclitaxel) ([2]; 72 h) | Molecule | IC50 (MCF7 (mammary carcinoma); 72 h exposure) | IC50 [1, 5] | IC50 (MCF7 (mammary carcinoma); [11]) | IC50 [1, 12] | other results |
| --- | --- | --- | --- | --- | --- | --- |
| 99.7% | 7,10-Bis[3-(4-benzoylphenyl)prop-2-enoyl]-10-deacetylbaccatin III [SB-RA-4102] | > 10 µM | > 10 µM |  |  | IC50 [2, 6]: 0.0027 µM |
| 99.3% | 7-[3-(2-Naphtyl)propanoyl]-13-acetylbaccatin III [SB-RA-30012] | > 10 µM | > 10 µM |  |  | IC50 [2, 6]: 0.0058 µM |
| 97.5% | CC(=O)O[C@H]1C(=O)[C@]2(C)[C@@H](OC(=O)c3ccc4ccccc4c3)C[C@H]3OC[C@@]3(OC(C)=O)[C@H]2[C@H](OC(=O)c2ccccc2)[C@]2(O)C[C@H](O)C(C)=C1C2(C)C [SB-RA-30001, 7-(Naphthalene-2-carbonyl)baccatin III] |  |  | 5.3 µM | 11 µM |  |
| 96% | CC(=O)O[C@H]1C(=O)[C@]2(C)[C@@H](OC(=O)/C=C/c3ccc4ccccc4c3)C[C@H]3OC[C@@]3(OC(C)=O)[C@H]2[C@H](OC(=O)c2ccccc2)[C@]2(O)C[C@H](O)C(C)=C1C2(C)C [SB-RA-30011, 7-[3-(2-naphthyl)-2-propenoyl]baccatin III] |  |  | 4.7 µM | 8 µM | IC50 [3, 9]: 6.3 µM; IC50 [4, 10]: 6.8 µM; enhancement of the tumor growth inhibitory activity of doxorubicin ([2]; 1 μM taxoid): 92%; % IC50 reduction (taxoid + Doxorubicin) ([2]; taxoid 1 μM + doxorubicin, 72 h): 92% |
| 96% | CC(=O)O[C@H]1C(=O)[C@]2(C)[C@@H](OC(=O)CCc3ccc4ccccc4c3)C[C@H]3OC[C@@]3(OC(C)=O)[C@H]2[C@H](OC(=O)c2ccccc2)[C@]2(O)C[C@H](O)C(C)=C1C2(C)C [SB-RA-30021, 7-[3-(2-Naphthyl)propanoyl]baccatin III] |  |  | 4.9 µM | 5 µM | IC50 [3, 9]: 5.7 µM; IC50 [4, 10]: 5.3 µM |
| 99.8% | CC(=O)O[C@H]1C(=O)[C@]2(C)[C@@H](OC(=O)/C=C/c3ccc(C(=O)c4ccccc4)cc3)C[C@H]3OC[C@@]3(OC(C)=O)[C@H]2[C@H](OC(=O)c2ccccc2)[C@]2(O)C[C@H](O)C(C)=C1C2(C)C [SB-RA-31011, 7-[4-Benzoylcinnamoyl]baccatin III] |  |  | 11 µM | > 10 µM |  |
| 99.7% | CC(=O)O[C@H]1C(=O)[C@]2(C)[C@@H](OC(=O)/C=C/c3ccc(C(=O)c4ccccc4)cc3)C[C@H]3OC[C@@]3(OC(C)=O)[C@H]2[C@H](OC(=O)c2ccccc2)[C@]2(O)C[C@H](OC(C)=O)C(C)=C1C2(C)C [SB-RA-31012] |  |  | > 10 µM | > 10 µM |  |

Continued, molecule first:

| Molecule | % IC50 reduction (taxoid + Paclitaxel) ([2]; 72 h) | IC50 (MCF7 (mammary carcinoma); 72 h exposure) | IC50 [1, 5] | IC50 (MCF7 (mammary carcinoma); [11]) | IC50 [1, 12] | other results |
| --- | --- | --- | --- | --- | --- | --- |
| 13-(4-Benzoylcinnamoyl)-7,10-bis(2,2,2-trichloroethoxycarbonyl)baccatin III [SB-RA-110] |  | > 10 µM | > 10 µM |  |  | IC50 [3, 7]: > 10 µM; IC50 [4, 5]: > 10 µM |
| COc1cccc2c1C(=O)c1c(O)c3c(c(O)c1C2=O)C[C@@](O)(C(=O)CO)C[C@@H]3O[C@H]1C[C@H](N)[C@H](O)[C@H](C)O1 [Doxorubicin, reference compound] |  |  |  |  |  | IC50 ([3]; Homo sapiens, A2780, 72 h): 0.005 µM; IC50 ([4]; Homo sapiens, 72 h): 0.357 µM; IC50 (MCF7 (mammary carcinoma); Homo sapiens, MCF7, 72 h): 0.017 µM; IC50 ([1]; Homo sapiens, MCF7R, 72 h): 1.89 µM; IC50 [2, 8]: 1.89 µM |
| CC(=O)O[C@H]1C(=O)[C@@]2(C)[C@H]([C@H](OC(=O)c3ccccc3)[C@]3(O)C[C@H](OC(=O)[C@H](O)[C@@H](NC(=O)c4ccccc4)c4ccccc4)C(C)=C1C3(C)C)[C@]1(OC(C)=O)CO[C@@H]1C[C@@H]2O [Paclitaxel, reference compound] |  |  |  |  |  | IC50 (MCF7 (mammary carcinoma); Homo sapiens, MCF7, 72 h): 0.0017 µM; IC50 ([1]; Homo sapiens, MCF7R, 72 h): 0.85 µM; IC50 ([2]; Homo sapiens, MCF7R, read-out: IC50 of paclitaxel, taxoid at 1 or 3 μM (from 860 to 42~1.6)): 0.86 µM; IC50 [2, 8]: 0.86 µM |
| CC(=O)O[C@@]12CO[C@@H]1C[C@H](O)[C@@]1(C)C(=O)[C@H](O)C3=C(C)[C@@H](OC(=O)/C=C/c4ccc5ccccc5c4)C[C@@](O)([C@@H](OC(=O)c4ccccc4)[C@H]21)C3(C)C [SB-RA-2001, 13-[3-(2-Naphthyl)prop-2-enoyl]-10-deacetylbaccatin III] |  | 2 µM | 5 µM |  |  | IC50 [3, 7]: 2.6 µM; IC50 [4, 5]: 3.8 µM |
| CC(=O)O[C@@]12CO[C@@H]1C[C@H](O)[C@@]1(C)C(=O)[C@H](OC(=O)/C=C/c3ccc(C(=O)c4ccccc4)cc3)C3=C(C)[C@@H](O)C[C@@](O)([C@@H](OC(=O)c4ccccc4)[C@H]21)C3(C)C [SB-RA-4001, 10-[(4-Benzoyl)cinnamoyl]-10-deacetylbaccatin III] | 95% |  |  | 8.5 µM | > 10 µM | IC50 [3, 9]: 8 µM; IC50 [4, 10]: 10 µM |
| CC(=O)O[C@H]1C(=O)[C@@]2(C)[C@H]([C@H](OC(=O)c3ccccc3)[C@]3(O)C[C@H](OC(=O)[C@H](O)[C@@H](NC(=O)CCc4ccc(C(=O)c5ccccc5)cc4)c4ccccc4)C(C)=C1C3(C)C)[C@]1(OC(C)=O)CO[C@@H]1C[C@@H]2O [SB-T-5101] |  |  |  |  |  | binding to microtubules (microtubules): binds to microtubules as expected; binding to P-glycoprotein mdr 1a (P-glycoprotein mdr 1a): binds to both mdr 1a (major) and mdr 1b (minor) in T1 cells; binding to P-glycoprotein mdr 1b (P-glycoprotein mdr 1b; Taxol-resistant T1 cells): binds to both mdr 1a (major) and mdr 1b (minor) in T1 cells; binding to P-glycoprotein mdr 1b (P-glycoprotein mdr 1b; vinblastine-resistant V1 cells): only binds to mdr 1b in V1 cells; photoaffinity labeling of non-drug resistant cells (J7 (parent) cells): no photoaffinity labeling is observed |
